{
  "source": "paper PMC5905120",
  "about": "“An innovative immunotherapeutic strategy for ovarian cancer: CLEC10A and glycomimetic peptides” (Journal for Immunotherapy of Cancer, 2018)",
  "test_system": "Siglec-1",
  "assay": "Solid-phase binding to Siglec-1",
  "set-up": "species or system human",
  "details": "Fig. 2b",
  "description": "Solid-phase binding assays were performed with streptavidin-, protein A/G-, or Nickel-coated microtiter plates (Pierce). His-tagged or Fc-fusion recombinant receptors (R&D Systems, Minneapolis, MN) were reconstituted in PBS. Sufficient receptors were added to wells to saturate the coating. His-tagged receptors were added to each well at a 5-fold excess over the stated capacity of the Ni coating to minimize non-specific binding of the peptide. Wells were washed three times with binding buffer (25 mM Tris HCl, pH 7.4, 150 mM NaCl, 0.05% Tween-20) to remove unbound receptor and 50 μL of 2 μM biotinylated peptide in binding buffer were added and allowed to incubate for 1 h. The wells were washed four times with binding buffer and then incubated with 50 μL of 1 μg/mL streptavidin conjugated with peroxidase (Sigma-Aldrich) for 1 h. […] After several minutes to allow color development, the reaction was stopped with 50 μL 1 M H3PO4 and absorbance was measured at 450 nm. Bound streptavidin was quantitated by the specific activity of peroxidase (absorbance/ng protein conjugate/min) under the conditions of the assay.\nSolid-phase binding assays were performed with recombinant human receptors. […] After extensive washing, the bound receptor was measured by peroxidase conjugated to a receptor-specific antibody. […]",
  "note": "Bridges are numbered along the chain shown (N, C = ends). Roman numbers before positions name the chains, in order. Where no end group is shown, it is not given here.",
  "data": [
    {"substance": "I: VQATQSNQHTPRGGGSKK-NH2 / II: VQATQSNQHTPRGGGSK / III: VQATQSNQHTPRGGGS / IV: VQATQSNQHTPRGGGS (amide I:17-IV:C, I:18-II:C, II:17-III:C) [svL4]", "values": [
      {"measurement": "binding to Siglec-1", "result": "did not bind significantly"}
    ]}
  ]
}
